# Test results taken from paper PMC10284550, “Accelerating drug target inhibitor discovery with a deep generative foundation model” (Science Advances, 2023).
# Like-named read-outs stand apart in the source and are kept apart here.
# Key:
# [1] = system: SARS-CoV-2 pseudotyped lentivirus; test: microbe, parasite or virus in culture; type: cell-based
# [2] = system: SARS-CoV-2 Victoria live virus (SARS-CoV-2/human/AUS/VIC01/2020); test: microbe, parasite or virus in culture; type: cell-based
# [3] = system: SARS-CoV-2 pseudotyped lentivirus (Beta); test: microbe, parasite or virus in culture; type: cell-based; conditions: read-out: IC50 pseudoviral neutralization, Beta
# [4] = system: SARS-CoV-2 pseudotyped lentivirus (Delta); test: microbe, parasite or virus in culture; type: cell-based; conditions: read-out: IC50 pseudoviral neutralization, Delta
# [5] = system: SARS-CoV-2 Alpha live virus; test: microbe, parasite or virus in culture; type: cell-based
# [6] = system: SARS-CoV-2 Delta live virus; test: microbe, parasite or virus in culture; type: cell-based
# [7] = system: SARS-CoV-2 pseudotyped lentivirus (Victoria); test: microbe, parasite or virus in culture; type: cell-based; conditions: read-out: IC50 pseudoviral neutralization, Victoria
# [8] = system: SARS-CoV-2 Gamma live virus; test: microbe, parasite or virus in culture; type: cell-based; conditions: Severe acute respiratory syndrome coronavirus 2, read-out: IC50 live virus neutralization, Gamma
# [9] = system: SARS-CoV-2 pseudotyped lentivirus (Gamma); test: microbe, parasite or virus in culture; type: cell-based; conditions: read-out: IC50 pseudoviral neutralization, Gamma
# [10] = system: SARS-CoV-2 pseudotyped lentivirus (Alpha); test: microbe, parasite or virus in culture; type: cell-based; conditions: read-out: IC50 pseudoviral neutralization, Alpha
# [11] = system: SARS-CoV-2 pseudotyped lentivirus (Omicron); test: microbe, parasite or virus in culture; type: cell-based; conditions: read-out: IC50 pseudoviral neutralization, Omicron
# [12] = system: SARS-CoV-2 Omicron live virus; test: microbe, parasite or virus in culture; type: cell-based; conditions: Severe acute respiratory syndrome coronavirus 2, read-out: IC50 live virus neutralization, Omicron
# SARS-CoV-2 M^pro [13] = target: T1, SARS-CoV-2 M^pro (Severe acute respiratory syndrome coronavirus 2, UniProt P0DTD1); test: biochemical
# SARS-CoV-2 = conditions: cited from earlier work
# SARS-CoV-2 M^pro [14] = target: T1, SARS-CoV-2 M^pro; type: binding
# [15] = Severe acute respiratory syndrome coronavirus 2, HEK293T/17, read-out: IC50, neutralization of SARS-CoV-2 pseudotyped lentivirus
# [16] = Severe acute respiratory syndrome coronavirus 2, read-out: IC50, neutralization of Victoria live virus
structure (smiles),measurement,setting,value
NC(=O)c1ccc(N)cc1OC1CCN(CC(F)(F)F)CC1 [GEN626],IC50,[1]; [15],> 50 µM
same,IC50,[2]; [16],> 50 µM
CS(=O)(=O)c1ccccc1Oc1ccc(-c2ccc(S(N)(=O)=O)cc2)cc1 [GEN725],IC50,[1]; [15],18.7 µM
same,IC50,[2]; [16],> 50 µM
C#CCN1CCC(CCNc2ccnc3ccccc23)CC1 [GEN727],IC50,[3],1.1 ± 0.8 µM
same,IC50,[4],2.2 ± 0.1 µM
same,IC50,"[5]; Severe acute respiratory syndrome coronavirus 2, read-out: IC50 live virus neutralization, Alpha",33.8 ± 1.1 µM
same,IC50,"[5]; read-out: IC50 live virus neutralization, Alpha",< 50 µM
same,IC50,"[6]; Severe acute respiratory syndrome coronavirus 2, read-out: IC50 live virus neutralization, Delta",39.1 ± 7.4 µM
same,IC50,"[6]; read-out: IC50 live virus neutralization, Delta",< 50 µM
same,IC50,[7],2.8 ± 1.6 µM
same,IC50,[1]; [15],2.8 µM
same,IC50,"[1]; read-out: IC50, neutralization of spike-containing pseudovirus across all VOCs",0.7 to 2.8 µM
same,IC50,[2]; [16],34.8 ± 2 µM
same,IC50,"[2]; Severe acute respiratory syndrome coronavirus 2, read-out: IC50 live virus neutralization, Victoria",31.5 ± 2.6 µM
same,IC50,"[2]; read-out: IC50 live virus neutralization, Victoria",< 50 µM
same,IC50,[8],55.4 ± 8.9 µM
same,IC50,[9],0.7 ± 0.3 µM
same,IC50,[10],2.4 ± 0.4 µM
same,IC50,[11],2.7 ± 0.5 µM
same,IC50,[12],130 ± 1.9 µM
Cn1nnnc1C1(c2cccc(Cl)c2)CCC1 [GEN777],IC50,[1]; [15],> 50 µM
same,IC50,[2]; [16],> 50 µM
OC1CCN(c2nc(Nc3ccc4c(c3)CCC4)nc(N3CCC(F)(F)CC3)n2)CC1 [GXA70],IC50,SARS-CoV-2 M^pro [13],43 µM
CN(c1nc(N2CCOCC2)nc(N2CCc3ccccc32)n1)C1CCC(NS(N)(=O)=O)CC1 (stereo not shown) [GXA112],IC50,SARS-CoV-2 M^pro [13],34.2 µM
CS(=O)(=O)c1cccc(C[C@H](NC(=O)c2c(Cl)cc3c(c2Cl)CCN(C(=O)c2ccc4ccoc4c2)C3)C(=O)O)c1 [Lifitegrast],antiviral potency against SARS-CoV-2 in vitro,SARS-CoV-2,dose-dependent antiviral potency
CN(Cc1ccc(Cl)c(Cl)c1)c1ccc(S(N)(=O)=O)cn1 [Z68337194],Binding to M^pro seen in crystal structure,SARS-CoV-2 M^pro [14],bound in the active site pocket
same,IC50,SARS-CoV-2 M^pro [13],35.5 µM
